Experimental data published in publication PMC7866262, “Laccase-Catalyzed 1,4-Dioxane-Mediated Synthesis of Belladine N-Oxides with Anti-Influenza A Virus Activity” (International Journal of Molecular Sciences, 2021).
Read-outs that look alike come from different tables or passages of the source.

Columns and labels:
[1] = tested on: influenza A/Puerto Rico/8/34 H1N1 (PR8) virus; experiment: microbe, parasite or virus in culture; format: cell-based; conditions: for IC50: Influenza A virus
[2] = tested on: influenza A/Puerto Rico/8/34 H1N1 (PR8) virus; experiment: microbe, parasite or virus in culture; format: cell-based; conditions: for IC50: Influenza A virus, 24 h, read-out: IC50 (concentration of compound causing 50% reduction of viral infection)
in vitro [3] = conditions: human
in vitro [4] = conditions: dog
[5] = tested on: influenza A/Puerto Rico/8/34 H1N1 (PR8) virus; format: cell-based
[6] = A549, 24 h, read-out: IC50 (concentration of compound causing 50% reduction of viral infection)

SMILES | IC50 [1, 6] [µM] | IC50 [2] [µM] | CC50 at 24 h (in vitro [3]) [µM] | CC50 (in vitro [4]) [µM] | SI (Selectivity Index, CC50/IC50) [2] | antiviral activity against influenza A virus (in words) [1] | CC50 (in vitro [3]) [µM] | IC50 ([1]; A549, read-out: IC50 range against viral replication) [µg/mL] | foci of infection in cell monolayers [5]
COc1cc(Br)c(C[N+](C)([O-])CCc2ccc(O)cc2)cc1O (stereo not drawn) [Compound 9, N-(2-Bromo-5-Hydroxy-4-Methoxybenzyl)-2-(4-Hydroxyphenyl)-N-Methylethan-1-Amine Oxide] | 377 ± 11.4 | 86.8 ± 5.1 | 211 ± 8.1 | 206 ± 7.9 |  |  |  |  | 
C[N+]([O-])(CCc1ccc(O)cc1)Cc1ccccc1 (stereo not drawn) [Compound 12e, N-Benzyl-2-(4-Hydroxyphenyl)-N-Methylethan-1-Amine Oxide] |  | 133 ± 5.8 |  | 109 ± 5.1 | 0.81 |  |  |  | 
COc1ccc(C[N+](C)([O-])CCc2ccc(O)cc2)cc1O (stereo not drawn) [Compound 12a, N-(3-Hydroxy-4-Methoxybenzyl)-2-(4-Hydroxyphenyl)-N-Methylethan-1-Amine Oxide] | 78.8 ± 4.3 | 137 ± 5.9 | 200 ± 7.1 | 137 ± 5.8 |  |  |  |  | 
C[N+]([O-])(CCc1ccc(O)cc1)Cc1ccc(O)cc1 (stereo not drawn) [Compound 12c, N-(4-Hydroxybenzyl)-2-(4-Hydroxyphenyl)-N-Methylethan-1-Amine Oxide] | 80.2 ± 4.9 | 84.7 ± 4.8 | 83.8 ± 5 | 114 ± 5.2 |  |  |  |  | 
C[N+]([O-])(CCc1ccc(O)cc1)Cc1ccc([N+](=O)[O-])c(O)c1 (stereo not drawn) [Compound 12d, N-(3-Hydroxy-4-Nitrobenzyl)-2-(4-Hydroxyphenyl)-N-Methylethan-1-Amine Oxide] | 1240 ± 30.2 | 70.2 ± 4 |  | 101 ± 4.9 |  | deprived the molecule of antiviral activity | 113 ± 6.1 |  | 
C[N+]([O-])(CCCc1ccccc1)Cc1cccc(O)c1 (stereo not drawn) [Compound 12h, N-(3-Hydroxybenzyl)-N-Methyl-3-Phenylpropan-1-Amine Oxide] | 70.4 ± 3.1 | 73.2 ± 3.3 |  | 221 ± 8.9 |  |  | 287 ± 8.3 | 70 to 73 | reduction of foci of infection
C[N+]([O-])(CCc1ccc(O)cc1)Cc1cccc(O)c1 (stereo not drawn) [Compound 12b, N-(3-hydroxybenzyl)-2-(4-hydroxyphenyl)-N-methylethan-1-amine oxide] | 83.2 ± 5.1 | 138 ± 6.1 | 149 ± 6.2 | 129 ± 6 |  |  |  |  | 
